Laboratory results published in ChEMBL document CHEMBL1201862, “PubChem BioAssay data set” (2004).
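Growth conditions: 96-well plates. Treatment: test compound, 48 hours, 5 concentrations. Analysis: linear interpolation between bracketing concentrations; unreached endpoints set to highest concentration. GI50 marks 50% less growth.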 The source made the active and inactive calls. Rule as the data show it: active = GI50 up to about 1.1 µM and inactive = higher.

Key:
Test in all cases: NCI tumour cell line growth inhibition, 48 h
786-0 = system: 786-0
BT-549 = system: BT-549
COLO 205 = system: COLO 205
DU-145 = system: DU-145
HOP-62 = system: HOP-62
MDA-MB-231 = system: MDA-MB-231
MDA-MB-435 = system: MDA-MB-435
NCI-H226 = system: NCI-H226
NCI-H522 = system: NCI-H522
NCI/ADR-RES = system: NCI/ADR-RES
OVCAR-8 = system: OVCAR-8
SK-MEL-28 = system: SK-MEL-28
TK-10 = system: TK-10
UACC-257 = system: UACC-257

Measured: GI50

Cc1cc(=O)oc2cc(OS(C)(=O)=O)ccc12
inactive: 786-0 > 100 µM | BT-549 > 100 µM | COLO 205 > 100 µM | DU-145 > 100 µM | HOP-62 > 100 µM | MDA-MB-231 > 100 µM | MDA-MB-435 > 100 µM | NCI-H226 > 100 µM | NCI-H522 > 100 µM | NCI/ADR-RES > 100 µM | OVCAR-8 > 100 µM | SK-MEL-28 > 100 µM | TK-10 > 100 µM | UACC-257 > 100 µM

CCC(=O)NC(Nc1cccc(F)c1)(C(F)(F)F)C(F)(F)F
inactive: BT-549 > 100 µM | COLO 205 > 100 µM | DU-145 > 100 µM | MDA-MB-231 > 100 µM | MDA-MB-435 > 100 µM | NCI-H522 29.6 µM | NCI/ADR-RES > 100 µM | OVCAR-8 > 100 µM | SK-MEL-28 > 100 µM | TK-10 > 100 µM | UACC-257 > 100 µM

C[C@H]1S[C@@H](c2ccc(Cl)cc2Cl)N(NC(=O)c2ccncc2)C1=O
inactive: BT-549 39.4 µM | COLO 205 70.6 µM | DU-145 71.3 µM | HOP-62 > 100 µM | MDA-MB-231 49.2 µM | MDA-MB-435 43.6 µM | NCI-H226 41.6 µM | NCI-H522 37.8 µM | NCI/ADR-RES 21.7 µM | OVCAR-8 > 100 µM | SK-MEL-28 45.2 µM

Nc1ccccc1C(=O)N/N=C1\C(=O)Nc2ccccc21
inactive: 786-0 37.6 µM | BT-549 30.8 µM | COLO 205 > 100 µM | DU-145 > 100 µM | HOP-62 43.6 µM | MDA-MB-231 19.6 µM | MDA-MB-435 > 100 µM | NCI-H226 > 100 µM | NCI-H522 89.9 µM | NCI/ADR-RES > 100 µM | OVCAR-8 > 100 µM | TK-10 32.5 µM | UACC-257 > 100 µM

Cc1n[nH]c(CC#N)n1
inactive: 786-0 > 100 µM | BT-549 > 100 µM | COLO 205 > 100 µM | DU-145 > 100 µM | HOP-62 > 100 µM | MDA-MB-231 > 100 µM | MDA-MB-435 > 100 µM | NCI-H522 > 100 µM | NCI/ADR-RES > 100 µM | OVCAR-8 > 100 µM | TK-10 > 100 µM | UACC-257 > 100 µM

Cc1ccc(OCC2OC(n3cnc4c(Cl)nc(N)nc43)CC2Oc2ccc(C)cc2)cc1 (configuration not stated)
inactive: 786-0 55.5 µM | BT-549 43.3 µM | COLO 205 68.4 µM | DU-145 40.8 µM | HOP-62 > 36.1 µM | MDA-MB-231 22.4 µM | MDA-MB-435 > 57.1 µM | NCI-H226 > 43.5 µM | NCI-H522 3.61 µM | NCI/ADR-RES 34.4 µM | OVCAR-8 31.9 µM | SK-MEL-28 > 51.4 µM | TK-10 58.6 µM | UACC-257 63.7 µM

COC(=O)C(F)C(Br)C(=O)OC (configuration not stated)
inactive: 786-0 2.52 µM | BT-549 16.2 µM | COLO 205 1.67 µM | DU-145 9.55 µM | HOP-62 16.3 µM | MDA-MB-231 14.6 µM | MDA-MB-435 8.38 µM | NCI-H226 20.9 µM | NCI-H522 1.43 µM | NCI/ADR-RES 2.94 µM | OVCAR-8 3.63 µM | SK-MEL-28 18 µM | TK-10 2.38 µM | UACC-257 14.6 µM

CCOc1ccc2c(C)cc(=O)oc2c1
inactive: 786-0 > 100 µM | BT-549 > 100 µM | COLO 205 > 100 µM | DU-145 > 100 µM | HOP-62 > 100 µM | MDA-MB-231 > 100 µM | MDA-MB-435 > 100 µM | NCI-H226 > 100 µM | NCI-H522 > 100 µM | NCI/ADR-RES > 100 µM | OVCAR-8 > 100 µM | SK-MEL-28 > 100 µM | UACC-257 > 100 µM
